Measurements taken from US12686673B2 (Blueprint Medicines Corporation, priority 2020, dated 2026).
Structures can show the parent of a compound that is named as a salt.

Key:
Assay type in all cases: cell-based
[1] = target: EGFR (A767_dupASV) expressing Ba/F3 stable cell line (Homo sapiens, UniProt P00533, DUP767-769, cells depend on it); assay: Cellular proliferation (Alamar Blue) assay, EGFR A767_dupASV Ba/F3; details: 72 hr, read-out: A767 IC50
Summary of the method: (§1)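 Steps: plate 15,000 Ba/F3 cells/well in RPMI/10% FBS; rest 16-18 h, 37 °C; add compound at final 10-0.0005 μM (3-fold series) or DMSO; incubate 72 hr; add Alamar Blue; read after 3 h.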

[2] = target: EGFR (H773insNPH) expressing Ba/F3 stable cell line (Homo sapiens, UniProt P00533, DUP771-773, cells depend on it); assay: Cellular proliferation (Alamar Blue) assay, EGFR H773insNPH Ba/F3; details: 72 hr, read-out: NPH IC50
Summary of the method: as §1

A431 cells = assay: Cellular proliferation (Alamar Blue) assay, A431; details: Homo sapiens, A-431; A431 cells, Alamar Blue, 72 hr; read-out: A431 IC50
[3] = target: EGFR(D770_N771insSVD) expressing Ba/F3 stable cell line (Homo sapiens, UniProt P00533, DUP768-770, cells depend on it); assay: Cellular proliferation (Alamar Blue) assay, EGFR D770_N771insSVD Ba/F3; details: 72 hr, read-out: D770 IC50
Summary of the method: as §1

[4] = target: HER2 (A775_G776insYVMA) expressing Ba/F3 stable cell line (Homo sapiens, UniProt P04626, DUP772-775, cells depend on it); assay: Cellular proliferation (Alamar Blue) assay, HER2 A775_G776insYVMA Ba/F3; details: 72 hr, read-out: YVMA IC50
Summary of the method: as §1

Chain of EGFR (H773insNPH) expressing Ba/F3 stable cell line (P00533 with tags, fused parts or gaps DUP771-773): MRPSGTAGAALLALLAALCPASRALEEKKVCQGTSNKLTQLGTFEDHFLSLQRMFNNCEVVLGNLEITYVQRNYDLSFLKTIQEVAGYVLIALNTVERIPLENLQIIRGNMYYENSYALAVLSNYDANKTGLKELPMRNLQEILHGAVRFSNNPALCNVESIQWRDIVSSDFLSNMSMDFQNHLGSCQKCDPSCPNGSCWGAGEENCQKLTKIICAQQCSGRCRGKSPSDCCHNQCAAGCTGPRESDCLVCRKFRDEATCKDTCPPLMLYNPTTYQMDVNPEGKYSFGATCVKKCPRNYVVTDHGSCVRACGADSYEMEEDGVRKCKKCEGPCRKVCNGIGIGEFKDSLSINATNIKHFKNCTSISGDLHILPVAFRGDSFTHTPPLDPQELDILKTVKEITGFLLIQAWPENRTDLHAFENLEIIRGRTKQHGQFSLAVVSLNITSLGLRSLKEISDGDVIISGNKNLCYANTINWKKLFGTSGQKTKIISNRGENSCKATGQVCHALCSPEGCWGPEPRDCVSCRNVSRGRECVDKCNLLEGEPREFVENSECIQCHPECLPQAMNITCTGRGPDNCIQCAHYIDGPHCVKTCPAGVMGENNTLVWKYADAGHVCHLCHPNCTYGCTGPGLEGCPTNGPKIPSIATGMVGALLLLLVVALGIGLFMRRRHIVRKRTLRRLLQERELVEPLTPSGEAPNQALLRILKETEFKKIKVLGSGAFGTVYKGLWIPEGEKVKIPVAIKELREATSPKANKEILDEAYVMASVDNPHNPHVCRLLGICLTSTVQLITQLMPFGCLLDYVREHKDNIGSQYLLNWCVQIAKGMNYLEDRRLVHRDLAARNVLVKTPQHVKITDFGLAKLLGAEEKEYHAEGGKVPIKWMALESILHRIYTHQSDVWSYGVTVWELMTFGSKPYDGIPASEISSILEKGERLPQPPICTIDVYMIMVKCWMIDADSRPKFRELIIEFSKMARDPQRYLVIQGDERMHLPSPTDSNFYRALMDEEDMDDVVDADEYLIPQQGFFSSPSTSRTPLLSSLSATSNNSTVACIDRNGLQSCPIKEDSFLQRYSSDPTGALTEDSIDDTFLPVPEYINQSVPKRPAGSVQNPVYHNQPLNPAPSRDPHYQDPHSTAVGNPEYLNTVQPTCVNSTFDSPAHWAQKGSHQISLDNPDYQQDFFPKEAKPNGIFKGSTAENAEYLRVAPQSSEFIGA
Chain of EGFR(D770_N771insSVD) expressing Ba/F3 stable cell line (P00533 with tags, fused parts or gaps DUP768-770): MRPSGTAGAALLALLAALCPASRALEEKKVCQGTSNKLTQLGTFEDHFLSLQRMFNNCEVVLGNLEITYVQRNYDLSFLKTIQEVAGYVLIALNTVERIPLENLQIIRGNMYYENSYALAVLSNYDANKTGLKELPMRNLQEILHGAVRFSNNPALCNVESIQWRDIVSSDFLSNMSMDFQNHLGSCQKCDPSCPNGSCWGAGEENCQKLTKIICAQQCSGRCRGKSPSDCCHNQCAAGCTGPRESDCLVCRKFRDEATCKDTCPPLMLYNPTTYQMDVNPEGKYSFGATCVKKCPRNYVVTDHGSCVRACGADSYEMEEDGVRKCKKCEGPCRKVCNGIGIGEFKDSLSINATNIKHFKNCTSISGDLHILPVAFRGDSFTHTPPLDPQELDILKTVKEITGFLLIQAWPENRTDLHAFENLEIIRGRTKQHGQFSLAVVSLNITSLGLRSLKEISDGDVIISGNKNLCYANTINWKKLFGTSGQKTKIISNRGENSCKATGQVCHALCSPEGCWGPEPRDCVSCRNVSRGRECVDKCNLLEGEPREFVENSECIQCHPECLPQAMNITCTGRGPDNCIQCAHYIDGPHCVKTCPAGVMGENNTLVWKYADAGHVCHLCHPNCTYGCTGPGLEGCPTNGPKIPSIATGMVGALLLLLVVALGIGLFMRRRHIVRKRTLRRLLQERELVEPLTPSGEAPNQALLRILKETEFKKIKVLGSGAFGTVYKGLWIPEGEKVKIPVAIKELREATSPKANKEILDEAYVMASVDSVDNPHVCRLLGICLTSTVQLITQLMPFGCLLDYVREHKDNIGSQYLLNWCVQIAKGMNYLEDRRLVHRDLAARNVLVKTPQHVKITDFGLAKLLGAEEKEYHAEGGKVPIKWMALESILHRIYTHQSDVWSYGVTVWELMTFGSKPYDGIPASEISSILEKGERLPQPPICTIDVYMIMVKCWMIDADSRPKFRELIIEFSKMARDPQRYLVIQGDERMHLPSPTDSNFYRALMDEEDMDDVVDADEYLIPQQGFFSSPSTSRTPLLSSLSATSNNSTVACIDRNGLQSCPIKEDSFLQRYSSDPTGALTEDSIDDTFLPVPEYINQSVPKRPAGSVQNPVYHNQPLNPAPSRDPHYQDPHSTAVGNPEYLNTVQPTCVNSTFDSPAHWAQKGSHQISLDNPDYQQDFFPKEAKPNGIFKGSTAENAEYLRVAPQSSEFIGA
Chain of EGFR (A767_dupASV) expressing Ba/F3 stable cell line (P00533 with tags, fused parts or gaps DUP767-769): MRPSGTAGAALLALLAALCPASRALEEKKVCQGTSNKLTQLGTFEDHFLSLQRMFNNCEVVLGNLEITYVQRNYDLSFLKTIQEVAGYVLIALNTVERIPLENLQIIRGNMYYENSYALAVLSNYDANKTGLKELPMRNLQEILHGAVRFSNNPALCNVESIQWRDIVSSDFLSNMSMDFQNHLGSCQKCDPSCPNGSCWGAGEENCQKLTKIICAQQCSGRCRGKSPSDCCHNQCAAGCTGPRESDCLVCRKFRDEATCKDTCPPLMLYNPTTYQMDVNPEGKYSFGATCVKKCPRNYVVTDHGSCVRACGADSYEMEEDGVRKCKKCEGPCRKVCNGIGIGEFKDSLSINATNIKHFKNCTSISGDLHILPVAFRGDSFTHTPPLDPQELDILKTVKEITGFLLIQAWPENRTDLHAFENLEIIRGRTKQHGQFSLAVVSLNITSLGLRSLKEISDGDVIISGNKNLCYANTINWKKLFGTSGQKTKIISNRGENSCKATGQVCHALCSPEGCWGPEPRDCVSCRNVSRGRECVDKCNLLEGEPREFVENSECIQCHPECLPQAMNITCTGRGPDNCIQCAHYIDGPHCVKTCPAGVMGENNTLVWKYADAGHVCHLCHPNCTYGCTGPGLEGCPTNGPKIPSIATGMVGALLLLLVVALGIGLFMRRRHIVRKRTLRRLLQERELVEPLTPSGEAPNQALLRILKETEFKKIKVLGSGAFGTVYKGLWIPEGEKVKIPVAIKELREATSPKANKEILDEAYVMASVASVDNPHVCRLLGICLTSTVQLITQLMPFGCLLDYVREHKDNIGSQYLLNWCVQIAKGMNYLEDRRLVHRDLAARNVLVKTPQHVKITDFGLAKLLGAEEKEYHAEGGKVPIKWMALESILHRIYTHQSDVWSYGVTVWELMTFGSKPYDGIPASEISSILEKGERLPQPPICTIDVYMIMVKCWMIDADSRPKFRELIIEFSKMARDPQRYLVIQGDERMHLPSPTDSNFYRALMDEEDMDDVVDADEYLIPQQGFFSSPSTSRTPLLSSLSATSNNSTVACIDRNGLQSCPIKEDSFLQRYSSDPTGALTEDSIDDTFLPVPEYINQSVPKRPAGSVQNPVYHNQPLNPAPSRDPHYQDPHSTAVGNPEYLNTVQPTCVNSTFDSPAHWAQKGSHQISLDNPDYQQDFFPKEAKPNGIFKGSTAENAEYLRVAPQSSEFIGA
Chain of HER2 (A775_G776insYVMA) expressing Ba/F3 stable cell line (P04626 with tags, fused parts or gaps DUP772-775): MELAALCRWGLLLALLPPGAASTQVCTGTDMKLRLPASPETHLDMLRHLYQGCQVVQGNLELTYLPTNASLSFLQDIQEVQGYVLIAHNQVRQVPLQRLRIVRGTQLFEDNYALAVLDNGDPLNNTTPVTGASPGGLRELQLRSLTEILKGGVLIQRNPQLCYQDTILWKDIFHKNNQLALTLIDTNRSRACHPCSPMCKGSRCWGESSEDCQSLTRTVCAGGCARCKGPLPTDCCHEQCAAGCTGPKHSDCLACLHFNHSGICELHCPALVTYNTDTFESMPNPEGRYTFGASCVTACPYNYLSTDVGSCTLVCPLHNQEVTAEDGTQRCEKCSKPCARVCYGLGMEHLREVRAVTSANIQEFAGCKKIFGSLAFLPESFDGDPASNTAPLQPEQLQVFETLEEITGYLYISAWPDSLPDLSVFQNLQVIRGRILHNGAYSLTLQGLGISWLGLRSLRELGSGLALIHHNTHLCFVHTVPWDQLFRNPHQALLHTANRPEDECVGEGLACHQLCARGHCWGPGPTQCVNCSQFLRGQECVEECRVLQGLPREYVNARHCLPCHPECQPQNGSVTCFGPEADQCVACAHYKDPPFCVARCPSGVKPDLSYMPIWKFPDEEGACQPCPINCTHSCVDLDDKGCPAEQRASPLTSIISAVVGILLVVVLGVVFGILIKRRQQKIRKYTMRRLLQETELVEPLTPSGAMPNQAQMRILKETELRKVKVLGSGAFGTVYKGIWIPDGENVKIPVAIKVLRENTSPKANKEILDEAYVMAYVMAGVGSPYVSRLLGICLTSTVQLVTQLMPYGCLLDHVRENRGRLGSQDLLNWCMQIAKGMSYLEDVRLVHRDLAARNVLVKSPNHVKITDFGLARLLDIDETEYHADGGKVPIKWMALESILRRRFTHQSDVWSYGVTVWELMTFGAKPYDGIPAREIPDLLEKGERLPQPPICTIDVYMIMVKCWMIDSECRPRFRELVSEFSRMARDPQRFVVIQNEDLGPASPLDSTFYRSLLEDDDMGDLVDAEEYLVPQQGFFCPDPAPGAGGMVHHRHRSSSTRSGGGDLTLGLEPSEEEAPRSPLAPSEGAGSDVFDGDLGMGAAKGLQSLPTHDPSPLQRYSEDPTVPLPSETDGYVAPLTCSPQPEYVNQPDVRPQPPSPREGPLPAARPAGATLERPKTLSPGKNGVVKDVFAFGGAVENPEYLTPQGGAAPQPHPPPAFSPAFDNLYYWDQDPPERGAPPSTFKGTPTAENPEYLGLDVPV

C=CC(=O)Nc1ccc(F)c(Nc2nc(Nc3cnn(C)c3)ncc2-c2ccnc(F)c2)c1 [Compound 82, N-(4-fluoro-3-((5-(2-fluoropyridin-4-yl)-2-((1-methyl-1H-pyrazol-4-yl)amino)pyrimidin-4-yl)amino)phenyl)acrylamide]
GI50 [1]: 103 nM
GI50 [2]: 57 nM
IC50 (A431 cells): 590 nM
GI50 [3]: 38 nM
GI50 [4]: 226 nM

C=CC(=O)Nc1ccc(F)c(Oc2nc(Nc3cnn(C)c3)ncc2-c2ccc(C(F)(F)F)cc2)c1 [Compound 152, N-(4-fluoro-3-((2-((1-methyl-1H-pyrazol-4-yl)amino)-5-(4-(trifluoromethyl)phenyl)pyrimidin-4-yl)oxy)phenyl)acrylamide]
GI50 [1]: 300 nM
GI50 [2]: 407 nM
IC50 (A431 cells): 3500 nM
GI50 [3]: 173 nM
GI50 [4]: 651 nM

C=CC(=O)Nc1cccc(Oc2nc(Nc3cnn(C)c3)ncc2-c2cncc(C(F)(F)F)c2)c1 [Compound 104, N-(3-((2-((1-methyl-1H-pyrazol-4-yl)amino)-5-(5-(trifluoromethyl)pyridin-3-yl)pyrimidin-4-yl)oxy)phenyl)acrylamide]
GI50 [1]: 104 nM
GI50 [2]: 101 nM
IC50 (A431 cells): 1120 nM
GI50 [3]: 107 nM
GI50 [4]: 115 nM

C=CC(=O)Nc1ccc(F)c(Nc2nc(Nc3cn(C)nc3C)ncc2-c2ccc(C(F)(F)F)cc2)c1 [Compound 135, N-(3-((2-((1,3-dimethyl-1H-pyrazol-4-yl)amino)-5-(4-(trifluoromethyl)phenyl)pyrimidin-4-yl)amino)-4-fluorophenyl)acrylamide trifluoroacetate]
GI50 [1]: 257 nM
GI50 [2]: 235 nM
IC50 (A431 cells): 94 nM
GI50 [3]: 120 nM
GI50 [4]: 413 nM
